Assay results from patent publication US11918550B2, “Sensitization of cancer cells to differentiation therapy with mitochondrial uncoupler niclosamide ethanolamine” (The Board of Trustees of the Leland Stanford Junior …, priority 2020, dated 2024).

How the values were obtained:
Assay type in all cases: cell-based
[1] = test system: NB16 cells; assay: Neurite outgrowth and β-tubulin III immunofluorescence (neuron differentiation); conditions: 72-96 h
Experimental: (§1) Neurite outgrowth assay. The quantification of neurite was performed as described before. Shortly, 1×10^4 SK-N-BE(2) and NB16 cells were plated in a 12 well-plate per well. After overnight incubation, cells were treated with various conditions as indicated for 72 h. Then, images were taken by a Leica Florescent Microscope DMi8 in phase contrast mode (20× magnification). The lengths of the neurites were traced and quantified using the ImageJ plugin NeuronJ. For each sample, total neurite length was measured and normalized to the number of cell bodies, mean value from 3 biological replicates was reported. Immunofluorescence staining. SK-N-BE(2) and NB16 cells were seeded into 8-chamber slides (Thermo Fisher Scientific, 154534) with a density of 6×10^3 cells/well overnight and treated with indicated treatment for 72 h. Cells were fixed with 4% PFA in PBS with 0.1% Tween-20 at RT for 30 minutes followed by permeabilization with 0.1% Triton X-100 in PBS at room temperature for 10 min. The cells were washed with PBS twice and blocked with 2.5% horse serum in PBS at RT for 1 h. Then, cells were subjected to immunofluorescence staining with primary antibody at 4° C. overnight. After two washes with PBS, cells were incubated with Alexa Fluor 594-conjugated anti-rabbit secondary antibody (Life Technologies) at RT for 1 h followed by staining with DAPI (Vector Laboratories, H-1800-2). Images were acquired with Leica DMi8 microscope.

[2] = test system: SK-N-BE(2) cells; assay: as above; conditions: 72-96 h
Experimental: as §1

[3] = test system: neuroblastoma cells; assay: Cell proliferation (cell counting); conditions: 1 μM NEN vs DMSO
Experimental: Cell proliferation and clonogenic assay. 2×10^4 cells were seeded in 12 well-plate and allowed to attached overnight. […] After treatment, cells were counted using hemocytometer.

[4] = test system: NB16 cells; assay: Relative intracellular metabolite levels by LC/MS
Experimental: Metabolic analysis. For the metabolomics and isotope tracing analysis in vitro, cells were washed with cold PBS, lysed in 80% Ultra LC-MS acetonitrile on ice for 15 minutes, centrifuged at 20,000 g for 10 minutes at 4° C., and supernatant was subjected to mass spectrometry analysis. For the metabolomics analysis in vivo, 10-20 mg tissue were cut off on ice, rinsed if necessary to remove blood, and place in a 2 ml round-bottom cryovial. The tissues were homogenized by 3 times 10 s on/off bursts homogenization in 1 ml 80% methanol on dry ice. Transfer the homogenate to an Eppendorf tube and keep on liquid nitrogen while processing the remaining samples. Incubated all the samples in −80° C. for 30 minutes. After incubation, vortexed the samples for 5 seconds. Then centrifuged the samples at 20,000 g for 10 minutes at 4° C., and supernatant was subjected to mass spectrometry analysis. Resuspend the remaining cellular pellet in 100 ul protein lysis buffer and determine the protein concentration. Then calculate the total protein content per sample.
Liquid chromatography was performed using an Agilent 1290 Infinity LC system (Agilent, Santa Clara, US) coupled to a Q-TOF 6545 mass spectrometer (Agilent, Santa Clara, US). A hydrophilic interaction chromatography method (HILIC) with a BEH amide column (100×2.1 mm i.d., 1.7 μm; Waters) was used for compound separation at 35° C. with a flow rate of 0.3 ml/minutes. The mobile phase A consisted of 25 mM ammonium acetate and 25 mM ammonium hydroxide in water and mobile phase B was acetonitrile. The gradient elution was 0-1 minute, 85% B; 1-12 minutes, 85% B→65% B; 12-12.2 minutes, 65% B→40% B; 12.2-15 minutes, 40% B. After the gradient, the column was re-equilibrated at 85% B for 5 minutes. The overall runtime was 20 minutes, and the injection volume was 5 μL. Agilent Q-TOF was operated in negative mode and the relevant parameters were as listed: ion spray voltage, 3500 V; nozzle voltage, 1000 V; fragmentor voltage, 125 V; drying gas flow, 11 L/minutes; capillary temperature, 325° C., drying gas temperature, 350° C.; and nebulizer pressure, 40 psi. A full scan range was set at 50 to 1600 (m/z). The reference mass was 119.0363 and 980.0164. The acquisition rate was 2 spectra/s. Targeted analysis, isotopologues extraction and natural isotope abundance correction were performed by Agilent Profinder B.10.00 (Agilent Technologies).

[5] = test system: SK-N-BE(2) cells; assay: Infinium Methylation EPIC array, locus-specific DNA methylation
Experimental: DNA microarray analysis. DNA extraction was carried out with samples were extracted by using PureLink™ Genomic DNA Mini Kit (Gibco, K182001), according to the protocol provided by the supplier. The DNA was quantified with the Nanodrop and 3 ug was used for bisulfite modification using the EZ DNA methylation kit (D5001, Zymo Research, Orange, CA) according to the protocol provided with the modification step according to the recommendations for array processing of the samples. Control PCR reactions were carried out before array analysis to confirm successful modification of the DNA. The bisulfite-modified DNA (500 ng) was applied to the Infinium MethylationEPIC array (Illumina). After bisulfite treatment of the DNA samples, the cytosines in the CpG sites were genotyped as C/T polymorphisms according to the manufacturer's protocol. Raw array data was collected with 866 k probes for 8 samples across 4 stages (those are control, 5 hours, 24 hours and 48 hours). The fluorescence signals were measured from the BeadArrays using an Illumina BeadStation GX scanner.
The fluorescence data were then analyzed using the GenomeStudio software (Illumina). The software assigns a score called a “b value” to each CpG site, which corresponds to the ratio between the fluorescence signal of the methylated allele (C) and the sum of the fluorescent signals of the methylated (C) and unmethylated (T) alleles. The data generated by the BeadStudio software was exported and further analyses were performed in the R programming environment. Then a detection p-value for every probe in every sample, representing the quality of the signal is generated using method minfi. Poor probes with all samples' p-values larger than or equal to 0.01 are removed which results in 864 k probes left. For methylation levels estimations we use M-Values (log 2 based Methylation signal over unmethylation signal) for analysis.
Differential Methylation Probes are identified by first standardizing M-Values with both rows and columns and then enforced certain direction (hypermethylated or hypomethylated) between control versus treatments. The p-values used in the volcano plot is calculated through Fisher' method by combining quality p-value for all samples with each probe.

O=C(Nc1ccc([N+](=O)[O-])cc1Cl)c1cc(Cl)ccc1O [NEN, 5-chloro-N-(2-chloro-4-nitrophenyl)-2-hydroxybenzamide compound with 2-aminoethanol (1:1)]
neuron differentiation morphology, NEN combined with RA vs NEN alone ([1]; NB16, 1 μM NEN + 1 μM 13-cis-RA): more profound | neuron differentiation morphology (neurite length, β-tubulin III staining) ([1]; NB16, 1 μM NEN alone): induced | neuron differentiation morphology, NEN combined with RA vs NEN alone ([2]; 1 μM NEN + 1 μM 13-cis-RA): more profound | neuron differentiation morphology (neurite length, β-tubulin III staining) ([2]; 1 μM NEN alone): induced | cell proliferation [3]: significantly inhibited | aspartate level ([4]; 1 μM NEN 2 h or 5 h vs DMSO): accumulated | citrate level ([4]; 1 μM NEN 2 h or 5 h vs DMSO): not affected | fumarate level ([4]; 1 μM NEN 2 h or 5 h vs DMSO): no significant increase | intracellular α-KG levels ([4]; 1 μM NEN 2 h or 5 h vs DMSO): increased significantly | malate level ([4]; 1 μM NEN 2 h or 5 h vs DMSO): no significant increase | succinate level ([4]; 1 μM NEN 2 h or 5 h vs DMSO): accumulated | intracellular glutamate level ([4]; 1 μM NEN 5 h vs DMSO): significantly reduced | intracellular glutamine level ([4]; 1 μM NEN 5 h vs DMSO): significantly reduced | differentially methylated sites close to transcription start sites (TSS200, 1st exon) ([5]; 1 μM NEN 24 or 48 hours): more hypomethylated sites than hypermethylated sites | differentially methylated sites in 'shelf' and 'shore' regions (vs CpG islands) ([5]; 1 μM NEN 24 or 48 hours): opposite trend | differentially methylated sites in CpG islands ([5]; 1 μM NEN 24 or 48 hours): more hypo-methylated sites than hyper-methylated sites | differentially methylated sites in the gene body and 3′ UTR region ([5]; 1 μM NEN 24 or 48 hours): more hypermethylated sites than hypomethylated sites | DNA methylation levels of CpG sites in the promoter region of p53 and CTNNBIP1 ([5]; 1 μM NEN 24 h): upregulated/downregulated
